Regarding `*/C=C(/*)c1cccc[c]1[Ge]([CH3])([CH3])[CH3]` (repeat unit), the glass transition temperature was 180.00 °C. In turn, `*CC1CCC(COC(=O)O*)CC1` (repeat unit) showed a glass transition temperature of 38.70 °C. As for `*CC1CCCC(COC(=O)c2ccc(C(=O)O*)cc2)C1` (repeat unit), the glass transition temperature was 75.00 °C. On to `*CCCCCCCCCCCCOc1ccc(/C=N/N=C/c2ccc(O*)cc2O)c(O)c1` (repeat unit), for which the glass transition temperature was found to be 89.00 °C. For the compound `*CCCCCCCCCCCOC(=O)c1ccc(-c2ccc(C(=O)O*)cc2)cc1` (repeat unit), the glass transition temperature was determined as 49.00 °C. With `*CCCCCCCCCCOC(=O)c1ccc(-c2ccc(-c3ccc(C(=O)O*)cc3)cc2)cc1` (repeat unit), the glass transition temperature was 50.00 °C.

`*CCCCCCCCCCOC(=O)c1ccccc1C(=O)O*` (repeat unit) showed a glass transition temperature of -14.00 °C. As to `*CCCCCCCCCCOc1ccc(/C=C/c2ccc(OCCCCCCCCCCOP(=O)(O*)OCCCCCCCCCCOc3ccc(/N=N/c4ccc(-c5ccccc5)cc4)cc3)cc2)cc1` (repeat unit), the glass transition temperature stood at 50.00 °C. With `*CCCCCCCCCCOc1ccc(/C=C/c2ccc(OCCCCCCCCCCOP(=O)(O*)OCCCCCCCCCCOc3ccc(/N=N/c4ccc(C#N)cc4)cc3)cc2)cc1` (repeat unit), the glass transition temperature amounted to 60.00 °C. Compound `*CCCCCCCCCCOc1ccc(/C=C/c2ccc(OCCCCCCCCCCOP(=O)(O*)OCCCCCCCCCCOc3ccc(/N=N/c4ccc([N+](=O)[O-])cc4)cc3)cc2)cc1` (repeat unit) yielded a glass transition temperature of 50.00 °C. In the case of `*CCCCCCCCCCOc1ccc(/C=C/c2ccc(OCCCCCCCCCCOP(=O)(O*)OCCCCCCCCCCOc3ccc(/N=N/c4ccccc4)cc3)cc2)cc1` (repeat unit), the glass transition temperature turned out to be 55.00 °C. Consider `*CCCCCCCCCOc1ccc(CCc2ccc(O*)cc2C)cc1` (repeat unit), for which the glass transition temperature is -1.10 °C. As for `*CCCCCCCCOC(=O)c1ccc(C(=O)O*)cc1` (repeat unit), the glass transition temperature was determined as 45.00 °C. Regarding `*CCCCCCCCOC(=O)c1ccc2cc(C(=O)O*)ccc2c1` (repeat unit), the glass transition temperature stood at 60.00 °C. In turn, `*CCCCCCCCOC(=O)c1cccc(C(=O)O*)c1` (repeat unit) displayed a glass transition temperature of -9.00 °C. In the case of `*CCCCCCCCOc1ccc(CCc2ccc(O*)cc2C)cc1` (repeat unit), the glass transition temperature is -12.00 °C. As to `*CCCCCCCOC(=O)c1ccc(C(=O)O*)cc1` (repeat unit), the glass transition temperature is -1.00 °C.

`*CCCCCCCOc1ccc(-c2ccc(O*)c3ccccc23)c2ccccc12` (repeat unit) yielded a glass transition temperature of 129.50 °C. Consider `*CCCCCCCOc1ccc(CCc2ccc(O*)cc2C)cc1` (repeat unit), for which the glass transition temperature came out at 6.50 °C. The result for `*CCCCCCOC(=O)C(CCCCCBr)C(=O)OCCCCCCOc1ccc(-n2on2-c2ccc(O*)cc2)cc1` (repeat unit) reads 7.00 °C; that for `*CCCCCCOC(=O)C(CCCCCCCCCCBr)C(=O)OCCCCCCOc1ccc(-n2on2-c2ccc(O*)cc2)cc1` (repeat unit), 16.00 °C; that for `*CCCCCCOC(=O)C(CCCCCCP(=O)(O)O)C(=O)OCCCCCCOc1ccc(-n2on2-c2ccc(O*)cc2)cc1` (repeat unit), 21.00 °C.

In the case of `*CCCCCCOC(=O)OCCCCCCCCOC(=O)OCCCCCCOc1ccc(Oc2ccc(O*)cc2)cc1` (repeat unit), the glass transition temperature was -17.00 °C. The result for `*CCCCCCOC(=O)OCCCCCCN1C(=O)c2ccc(-c3ccc(-c4ccc5c(c4)C(=O)N(*)C5=O)cc3)cc2C1=O` (repeat unit) reads 73.00 °C; that for `*CCCCCCOC(=O)OCCCCCOC(=O)OCCCCCCOc1ccc(C(=O)c2ccc(O*)cc2)cc1` (repeat unit), -0.20 °C. The result for `*CCCCCCOC(=O)c1ccc(C(=O)O*)cc1` (repeat unit) reads 13.00 °C; that for `*CCCCCCOC(=O)c1cccc(C(=O)O*)c1` (repeat unit), 5.50 °C; that for `*CCCCCCOc1ccc(/C=C/c2ccc(O*)cc2)cc1` (repeat unit), 76.00 °C. Turning to `*CCCCCCOc1ccc(/C=C2\CC/C(=C\c3ccc(OCCCCCCOP(=O)(O*)OCC)c(OC)c3)C2=O)cc1OC` (repeat unit), the glass transition temperature came to 75.00 °C.

Regarding `*CCCCCOC(=O)O*` (repeat unit), the glass transition temperature was -42.9 °C. `*CCCCCOC(=O)OCCCCCN1C(=O)c2ccc(C(=O)c3ccc4c(c3)C(=O)N(*)C4=O)cc2C1=O` (repeat unit) had a glass transition temperature of 77.00 °C. Take `*CCCCCOC(=O)c1ccc(-c2ccc(C(=O)O*)cc2)cc1` (repeat unit): the glass transition temperature was 47.50 °C. Regarding `*CCCCCOC(=O)c1ccc(C(=O)O*)cc1` (repeat unit), the glass transition temperature was 16.00 °C. `*CCCCCOC(=O)c1ccc2cc(C(=O)O*)ccc2c1` (repeat unit): the glass transition temperature is 58.50 °C. Compound `*CCCCCOc1ccc(-c2ccc(O*)c3ccccc23)c2ccccc12` (repeat unit) displayed a glass transition temperature of 151.00 °C. `*CCCCOC(=O)C1CCC(C(=O)O*)CC1` (repeat unit) showed a glass transition temperature of -10.50 °C. Consider `*CCCCOC(=O)OCCCCN1C(=O)c2ccc(-c3ccc4c(c3)C(=O)N(*)C4=O)cc2C1=O` (repeat unit), for which the glass transition temperature was determined as 104.00 °C. In the case of `*CCCCOC(=O)c1ccc(-c2ccc(C(=O)O*)cc2)cc1` (repeat unit), the glass transition temperature came out at 70.00 °C. With `*CCCCOCCCCOCCCCOC(=O)c1ccc(/N=C/c2ccc(/C=N/c3ccc(C(=O)O*)cc3)cc2)cc1` (repeat unit), the glass transition temperature is -13.20 °C.

Compound `*CCCCOc1ccc(-c2ccc(O*)c3ccccc23)c2ccccc12` (repeat unit) came in with a glass transition temperature of 130.00 °C. For the compound `*CCCCOc1ccc(/C=C2\CC/C(=C\c3ccc(OCCCCOP(=O)(O*)OCC)c(OC)c3)C2=O)cc1OC` (repeat unit), the glass transition temperature was determined as 79.00 °C. The compound `*CCCCOc1ccc(CCc2ccc(O*)cc2C)cc1` (repeat unit) returned a glass transition temperature of 24.90 °C. `*CCCOC(=O)OCCCCCCOC(=O)OCCCN1C(=O)c2ccc(C(=O)c3ccc4c(c3)C(=O)N(*)C4=O)cc2C1=O` (repeat unit) came in with a glass transition temperature of 70.00 °C. In the case of `*OC(=O)OCCCCOC(=O)OC1COC2C(*)COC12` (repeat unit), the glass transition temperature amounted to 49.00 °C. As to `*OC1CCC(OC(=O)OCCCCCCCOC(*)=O)CC1` (repeat unit), the glass transition temperature was -5.00 °C. `*OC1CCC(OC(=O)OCCCCCOC(*)=O)CC1` (repeat unit): the glass transition temperature is -5.00 °C. Under `*OC1CCC(OC(=O)OCCCCOC(*)=O)CC1` (repeat unit) stands 30.00 °C. Take `*Oc1ccc(C(=O)OCCCCCOC(=O)c2ccc(*)cc2)cc1` (repeat unit): the glass transition temperature was determined as 26.00 °C. `*c1ccc(C(=O)OCCCCCCCCCCOC(=O)c2ccc(-c3nnc(*)s3)cc2)cc1` (repeat unit) yielded a glass transition temperature of 79.00 °C. In the case of `*c1ccc(C(=O)OCCCCCCCCCCOc2ccc(/C=C3\CCCC/C(=C\c4ccc(OCCCCCCCCCCOC(=O)c5ccc(-c6nnc(*)o6)cc5)cc4)C3=O)cc2)cc1` (repeat unit), the glass transition temperature amounted to 74.00 °C. Regarding `*c1ccc(C(=O)OCCCCCCCCCOC(=O)c2ccc(-c3nnc(*)s3)cc2)cc1` (repeat unit), the glass transition temperature stood at 72.00 °C.

Consider `*c1ccc(C(=O)OCCCCCCCCOc2ccc(/C=C3\CC/C(=C\c4ccc(OCCCCCCCCOC(=O)c5ccc(-c6nnc(*)o6)cc5)cc4)C3=O)cc2)cc1` (repeat unit), for which the glass transition temperature is 99.00 °C. Turning to `*c1ccc(C(=O)OCCCCCCOc2ccc(/C=C3\CCC/C(=C\c4ccc(OCCCCCCOC(=O)c5ccc(-c6nnc(*)o6)cc5)cc4)C3=O)cc2)cc1` (repeat unit), the glass transition temperature is 71.00 °C. The result for `*c1ccc(OCCCCCCCCCCCOC(=O)c2ccc(C(=O)OCCCCCCCCCCCOc3ccc(-c4nnc(*)s4)cc3)cc2)cc1` (repeat unit) reads 64.00 °C; that for `*c1ccc(OCCCCCCCCCCCOC(=O)c2ccc(C(=O)OCCCCCCCCCCCOc3cccc(-c4nnc(*)s4)c3)cc2)cc1` (repeat unit), 35.00 °C; that for `*c1ccc(Oc2ccc(-c3csc(/N=C/c4ccc(OCCCCCCOc5ccc(/C=N/c6nc(*)cs6)cc5)cc4)n3)cc2)cc1` (repeat unit), 117.00 °C.

`*c1ccc(Oc2ccc(C(=O)c3ccc(Oc4ccc(-c5c6c(c(*)c7ccccc57)C(=O)N(c5ccc(Cl)cc5)C6=O)cc4)cc3)cc2)cc1` (repeat unit) gave a glass transition temperature of 272.00 °C. Compound `*c1ccc(Oc2ccc(C(=O)c3ccc(Oc4ccc(-c5c6c(c(*)c7ccccc57)C(=O)N(c5ccccc5-c5ccccc5)C6=O)cc4)cc3)cc2)cc1` (repeat unit) came in with a glass transition temperature of 245.00 °C. The result for `*c1ccc(Oc2ccc(C(=O)c3ccc(Oc4ccc(-c5c6c(c(*)c7ccccc57)C(=O)N(c5ccccc5C(F)(F)F)C6=O)cc4)cc3)cc2)cc1` (repeat unit) reads 260.00 °C. `*c1ccc(Oc2ccc(C(=O)c3ccc(Oc4ccc(-c5nc(-c6cccc(-c7nc(*)c(-c8ccccc8)[nH]7)c6)[nH]c5-c5ccccc5)cc4)cc3)cc2)cc1` (repeat unit) showed a glass transition temperature of 282.00 °C. In turn, `*c1ccc(Oc2ccc(C(=O)c3ccc(Oc4ccc(C(=O)c5ccc(Oc6ccc(-c7cc(*)n(-c8ccccc8)n7)cc6)cc5)cc4)cc3)cc2)cc1` (repeat unit) gave a glass transition temperature of 190.00 °C. Take `*c1ccc(Oc2ccc(C(=O)c3ccc(Oc4ccc(C(=O)c5ccc(Oc6ccc(-c7nc(-c8ccc(-c9nc(*)c(-c%10ccccc%10)[nH]9)cc8)[nH]c7-c7ccccc7)cc6)cc5)cc4)cc3)cc2)cc1` (repeat unit): the glass transition temperature was found to be 245.00 °C.

Regarding `*c1cccc(OCCCCCCCCCCCOC(=O)c2ccc(C(=O)OCCCCCCCCCCCOc3cccc(-c4nnc(*)s4)c3)cc2)c1` (repeat unit), the glass transition temperature was found to be 22.00 °C.

Source of the values: the PolyMetriX glass transition set.
